In ChEMBL document CHEMBL5055624, “Structural Determinants for the Mode of Action of Imidazopyridine DS2 at δ-Containing γ-Aminobutyric Acid Type A Receptors” (J Med Chem, 2021):

Experiments:
[1] = tested on: GABAA receptor alpha4beta1delta (Homo sapiens); test: Positive allosteric modulation of human recombinant alpha4beta1delta GABAA receptor expressed in HEK293 cells assessed as GABA-induced response in presence of GABA EC20 by FMP assay
[2] = biological target: Gamma-aminobutyric acid receptor subunit alpha-4/beta-1/delta (Homo sapiens, UniProt O14764+P18505+P48169); test: Positive allosteric modulation of human recombinant alpha4beta1delta GABAA receptor expressed in delta-HEK cells assessed as potentiation of GABA-induced response in presence of GABA EC20 by FMP assay; format: cell-based, HEK293
[3] = Solubility of compound; format: physicochemical

Gamma-aminobutyric acid receptor subunit alpha-4/beta-1/delta, sequence (P48169 whole entry): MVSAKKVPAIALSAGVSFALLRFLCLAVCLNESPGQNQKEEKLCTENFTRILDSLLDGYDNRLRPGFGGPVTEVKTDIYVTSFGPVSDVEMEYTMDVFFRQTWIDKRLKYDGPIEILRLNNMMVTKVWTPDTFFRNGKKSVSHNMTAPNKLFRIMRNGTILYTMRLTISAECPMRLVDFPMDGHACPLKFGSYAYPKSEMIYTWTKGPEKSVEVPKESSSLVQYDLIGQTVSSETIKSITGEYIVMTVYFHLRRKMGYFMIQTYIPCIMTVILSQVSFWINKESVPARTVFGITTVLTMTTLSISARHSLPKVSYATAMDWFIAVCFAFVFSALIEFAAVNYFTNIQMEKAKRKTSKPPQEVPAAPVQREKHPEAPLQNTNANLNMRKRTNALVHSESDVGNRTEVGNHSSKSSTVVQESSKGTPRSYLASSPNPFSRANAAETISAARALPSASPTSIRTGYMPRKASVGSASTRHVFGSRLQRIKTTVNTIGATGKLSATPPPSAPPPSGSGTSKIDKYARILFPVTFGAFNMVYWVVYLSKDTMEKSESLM
Gamma-aminobutyric acid receptor subunit alpha-4/beta-1/delta, sequence (O14764 whole entry): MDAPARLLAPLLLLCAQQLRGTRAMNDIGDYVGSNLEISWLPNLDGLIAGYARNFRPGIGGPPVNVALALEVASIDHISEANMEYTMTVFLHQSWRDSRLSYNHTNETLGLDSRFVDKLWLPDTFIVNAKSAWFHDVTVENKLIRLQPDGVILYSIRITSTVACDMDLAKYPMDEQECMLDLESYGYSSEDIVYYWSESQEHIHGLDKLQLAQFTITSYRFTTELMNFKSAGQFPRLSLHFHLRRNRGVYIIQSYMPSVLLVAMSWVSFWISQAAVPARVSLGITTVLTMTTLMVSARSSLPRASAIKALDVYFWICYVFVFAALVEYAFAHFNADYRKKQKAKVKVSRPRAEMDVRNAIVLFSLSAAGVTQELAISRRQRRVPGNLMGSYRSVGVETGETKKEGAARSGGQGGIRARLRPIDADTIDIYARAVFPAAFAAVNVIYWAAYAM
Gamma-aminobutyric acid receptor subunit alpha-4/beta-1/delta, sequence (P18505 whole entry): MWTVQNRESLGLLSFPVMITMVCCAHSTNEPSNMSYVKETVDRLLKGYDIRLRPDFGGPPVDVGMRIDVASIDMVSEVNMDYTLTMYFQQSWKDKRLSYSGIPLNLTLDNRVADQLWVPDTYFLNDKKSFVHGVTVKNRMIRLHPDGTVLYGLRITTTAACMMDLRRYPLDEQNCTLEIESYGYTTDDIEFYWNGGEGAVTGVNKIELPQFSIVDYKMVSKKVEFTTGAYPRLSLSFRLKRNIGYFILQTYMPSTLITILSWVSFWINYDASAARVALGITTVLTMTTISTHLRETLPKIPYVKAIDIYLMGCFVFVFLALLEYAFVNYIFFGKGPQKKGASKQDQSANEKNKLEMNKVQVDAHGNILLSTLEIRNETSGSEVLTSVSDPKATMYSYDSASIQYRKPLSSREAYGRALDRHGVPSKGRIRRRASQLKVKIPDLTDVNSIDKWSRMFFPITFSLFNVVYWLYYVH

Row | SMILES | EC50 [1] [nM] | EC50 [2] [nM] | solubility [3]
1 | O=C(Nc1c(-c2cccs2)nc2ccccn12)c1ccc(Cl)cc1 | 977 | 980 | 
2 | O=C(Nc1c(-c2cccs2)nc2ccc(F)cn12)c1ccc(Cl)cc1 | 1910 | 1920 | 
3 | O=C(Nc1c(-c2cccs2)nc2ccc(Br)cn12)c1ccc(Cl)cc1 | 60.3 | 60 | 
4 | Cc1ccc2nc(-c3cccs3)c(NC(=O)c3ccc(Cl)cc3)n2c1 | 162 | 160 | 
5 | Clc1ccc(-c2noc(-c3c(-c4ccccc4)nc4ccccn34)n2)cc1 |  |  | Insoluble
6 | O=C(Nc1c(-c2cccs2)nc2ccc(Cl)cn12)c1ccc(Cl)cc1 | 145 | 140 | 
7 | O=C(Nc1c(-c2cccs2)nc2ccc(C(F)(F)F)cn12)c1ccc(Cl)cc1 | 1100 | 1100 | 
